In patent US6372737B1 (priority 1996, dated 2002):

Legend:
Format in all cases: in vivo
[1] = tested on: Erysiphe graminis f.sp. hordei; assay: Erysiphe test (barley)/curative; details: curative, 7 days after inoculation
Method: (§1) Solvent: 25 parts by weight of N,N-dimethylacetamide
(§2) Emulsifier: 0.6 part by weight of alkylaryl polyglycol ether
(§3) To produce a suitable preparation of active compound, 1 part by weight of active compound or active compound combination is mixed with the stated amounts of solvent and emulsifier, and the concentrate is diluted with water to the desired concentration.
To test for curative activity, young plants are dusted with spores of Erysiphe graminis f.sp. hordei. 48 hours after the inoculation, the plants are sprayed with the preparation of active compound at the stated application rate.
(§4) The plants are placed in a greenhouse at a temperature of about 20° C. and a relative atmospheric humidity of about 80%, in order to promote the development of mildew pustules.
(§5) Evaluation is carried out 7 days after the inoculation. 0% means an efficacy which corresponds to that of the control, whereas an efficacy of 100% means that no infection is observed.

Leptosphaeria nodorum [2] = assay: Leptosphaeria nodorum test (wheat)/protective; details: application rate 6.25 g/ha, protective, 10 days after inoculation; for pest or weed control at 6.25 g/ha: Parastagonospora nodorum, 240 h, read-out: Efficacy in %
Method: as §1, §2, §3
(§6) To test for protective activity, young plants are sprayed with the preparation of active compound at the stated application rate. After the spray coating has dried on, the plants are sprayed with a spore suspension of Leptosphaeria nodorum. The plants remain in an incubation cabin at 20EC and 100% relative atmospheric humidity for 48 hours.
The plants are placed in a greenhouse at a temperature of about 15° C. and a relative atmospheric humidity of 80%.
(§7) Evaluation is carried out 10 days after the inoculation. 0% means an efficacy which corresponds to that of the control, whereas an efficacy of 100% means that no infection is observed.

Puccinia recondita [3] = assay: Puccinia test (wheat)/protective; details: application rate 6.25 g/ha, protective, 10 days after inoculation; for pest or weed control at 6.25 g/ha: Puccinia recondita, 240 h, read-out: Efficacy in %
Method: as §1, §2, §3
as §6, with “conidia” for “spore”, “Puccinia recondita.” for “Leptosphaeria nodorum.”, “20° C.” for “20EC”
The plants are then placed in a greenhouse at a temperature of about 20° C. and a relative atmospheric humidity of 80%, in order to promote the development of rust pustules.
as §7

Sphaerotheca fuliginea = assay: Sphaerotheca test (cucumber)/protective; details: protective, 10 days after inoculation; for Emax at 2.5 g/ha / Emax at 12.5 g/ha: Podosphaera fuliginea, 240 h, read-out: % efficacy; for Emax at 12.5 g/ha: application rate 12.5 g/ha
Method: To test for protective activity, young plants are sprayed with the commercial active compound preparation at the stated application rate. After the spray coating has dried on, the plants are inoculated with an aqueous spore suspension of Sphaerotheca fuliginea. The plants then remain in a greenhouse at about 23° C. and about 70% relative atmospheric humidity.
Evaluation is carried out 10 days after the inoculation. 0% means an efficacy corresponding to that of the control, and an efficacy of 100% means that no infection is observed.

Phytophthora infestans = assay: whole plant or invertebrate
Fusarium nivale = Fusarium nivale test (triticale)/seed treatment; details: dry seed dressing, about 3 weeks after sowing
Method: About 3 weeks after sowing, the plants are evaluated for symptoms of snow mould.

[4] = tested on: Erysiphe graminis fsp. tritici; assay: Erysiphe test (wheat)/protective; details: protective, 7 days after inoculation
Method: as §1, §2, §3
To test for protective activity, young plants are sprayed with the preparation of active compound at the stated application rate.
After the spray coating has dried on, the plants are dusted with spores of Erysiphe graminis fsp. tritici.
as §4, §5

Rhizoctonia solani = Rhizoctonia solani test (cotton)/seed treatment; details: application rate 75 mg/kg of seed, dry seed dressing, after 8 days
Method: The active compounds are applied as dry seed dressing. This is prepared by extending the respective active compound with ground mineral to give a finely pulverulent mixture which ensures uniform distribution on the seed surface.
To dress the seed, the infected seed together with the seed dressing is shaken for 3 minutes in a sealed glass flask.
2×50 corns of seed are sown at a depth of 2 cm into standard soil which is infected with Rhizoctonia solani, and the seeds are cultivated in a greenhouse at a temperature of about 22° C. in seed trays which receive a light regimen of 15 hours per day.
Evaluation is carried out after 8 days. 0% means an efficacy which corresponds to that of the untreated control, while an efficacy of 100% means that no disease is observed.

Leptosphaeria nodorum [5] = assay: Leptosphaeria nodorum test (wheat)/curative; details: curative, 10 days after inoculation
Method: as §1, §2, §3
(§8) To test for curative activity, young plants are sprayed with a conidia suspension of Leptosphaeria nodorum. The plants remain in an incubation cabin at 20° C. and 100% relative atmospheric humidity for 48 hours and are then sprayed with the preparation of active compound at the stated application rate.
The plants are placed in a greenhouse at a temperature of about 15° C. and a relative atmospheric humidity of about 80%.
as §7

Pyrenophora teres = Pyrenophora teres test (barley)/curative; details: application rate 6.25 g/ha, curative, 7 days after inoculation
Method: as §1, §2, §3
as §8, with “Pyrenophora teres.” for “Leptosphaeria nodorum.”, “hours. The plants” for “hours and”, “subsequently” for “then”
The plants are placed in a greenhouse at a temperature of about 20° C. and a relative atmospheric humidity of about 80%.
as §5

Botrytis cinerea = assay: Botrytis test (beans)/protective; details: 48 h, application rate 250 g/ha, protective, two days after inoculation, read-out: % efficacy
Method: To test for protective activity, young plants are sprayed with the commercial active compound preparation at the stated application rate. After the spray coating has dried on, 2 small pieces of agar covered with Botrytis cinerea are placed on each leaf. The inoculated plants are placed in a darkened chamber at about 20° C. and 100% relative atmospheric humidity.
Two days after the inoculation, the size of the infected spots on the leaves is evaluated. 0% means an efficacy corresponding to that of the control, and an efficacy of 100% means that no infection is observed.

[6] = tested on: Erysiphe graminis f.sp. tritici; assay: Erysiphe test (wheat)/curative; details: curative, 7 days after inoculation
Method: as §1, §2, §3
To test for curative activity, young plants are dusted with spores of Erysiphe graminis f.sp. tritici. 48 hours after the inoculation, the plants are sprayed with the preparation of active compound at the stated application rate.
as §4, §5

Puccinia recondita [7] = assay: Puccinia test (wheat)/curative; details: application rate 6.25 g/ha, curative, 10 days after inoculation
Method: as §1, §2, §3
as §8, with “Puccinia recondita.” for “Leptosphaeria nodorum.”, “hours. The plants” for “hours and”, “subsequently” for “then”
The plants are placed in a greenhouse at a temperature of about 20° C. and a relative atmospheric humidity of about 80%, in order to promote the development of rust pustules.
as §7

[8] = Phytophthora infestans, in Solanum lycopersicum, 72 h, read-out: % efficacy
[9] = application rate 25 mg/kg of seed
[10] = application rate 75 mg/kg of seed
[11] = application rate 5 g/ha, tomato, protective, 3 days after inoculation

Fc1ccc([C@]2(Cn3cncn3)O[C@H]2c2ccccc2Cl)cc1 (racemic) [(V), epoxiconazole]
Efficacy in % ([1]; application rate 12.5 g/ha): 92% | pest or weed control at 6.25 g/ha (Leptosphaeria nodorum [2]): 50% | pest or weed control at 6.25 g/ha (Puccinia recondita [3]): 81%

CN(C)S(=O)(=O)N(SC(F)(Cl)Cl)c1ccccc1 [(B1), dichlorofluanide]
% efficacy (Sphaerotheca fuliginea; application rate 25 g/ha): 20%

Cc1ccc(N(SC(F)(Cl)Cl)S(=O)(=O)N(C)C)cc1 [(B2), tolylfluanide]
% efficacy (Sphaerotheca fuliginea; application rate 25 g/ha): 22%

CC(C)(C)C(O)C(Oc1ccc(-c2ccccc2)cc1)n1cncn1 (centres unmarked) [(C), bitertanol]
Emax at 2.5 g/ha (Sphaerotheca fuliginea; application rate 2.5 g/ha): 20%

CC(C)(C)C(O)(CCc1ccc(Cl)cc1)Cn1cncn1 (centres unmarked) [(D), tebuconazole]
Emax at 5 g/ha (Phytophthora infestans; [8]): 26% | Efficacy in % (Fusarium nivale; [9]): 20% | Efficacy in % ([1]; application rate 6.25 g/ha): 33% | Efficacy in % ([1]; application rate 25 g/ha): 83% | Efficacy in % ([4]; application rate 6.25 g/ha): 0% | pest or weed control at 6.25 g/ha (Leptosphaeria nodorum [2]): 25% | pest or weed control at 6.25 g/ha (Puccinia recondita [3]): 38%

CC(C)(C)C(=O)C(Oc1ccc(Cl)cc1)n1cncn1 (centres unmarked) [(E), triadimefon]
Emax at 2.5 g/ha (Sphaerotheca fuliginea; application rate 2.5 g/ha): 30%

CC(C)(C)C(O)C(Oc1ccc(Cl)cc1)n1cncn1 (centres unmarked) [(F), triadimenol]
Emax at 5 g/ha (Phytophthora infestans; [8]): 0% | Efficacy in % (Fusarium nivale; [9]): 52% | Efficacy in % (Rhizoctonia solani): 48% | Efficacy in % ([1]; application rate 6.25 g/ha): 67% | Efficacy in % (Leptosphaeria nodorum [5]; application rate 6.25 g/ha): 25% | Efficacy in % (Pyrenophora teres): 0% | pest or weed control at 6.25 g/ha (Leptosphaeria nodorum [2]): 0% | pest or weed control at 6.25 g/ha (Puccinia recondita [3]): 13%

N#Cc1c[nH]cc1-c1cccc(Cl)c1Cl [(Fenpiclonil) V, fenpiclonil]
Efficacy in % (Fusarium nivale; [10]): 67%

O=C1c2ccccc2C(=O)N1SC(Cl)(Cl)Cl [(K), folpet]
Emax at 10 g/ha (Phytophthora infestans; [8]): 27%

COc1ccc(/C(=C/C(=O)N2CCOCC2)c2ccc(Cl)cc2)cc1OC [(L), dimetomorph]
Emax at 1 g/ha (Phytophthora infestans; [8]): 0%

COCC(=O)N(c1c(C)cccc1C)C(C)C(=O)OC (centres unmarked) [(N), metalaxyl]
Emax at 5 g/ha (Phytophthora infestans; [8]): 1%

CCO[PH](=O)O [(O), fosetyl-Al]
Emax at 250 g/ha (Botrytis cinerea): 4%

Cc1cc(C)nc(Nc2ccccc2)n1 [(Q), pyrimethanil]
Emax at 12.5 g/ha (Sphaerotheca fuliginea): 10%

Cc1cc(C2CC2)nc(Nc2ccccc2)n1 [(R), cyprodinyl]
Emax at 5 g/ha (Phytophthora infestans; [8]): 0% | Efficacy in % ([6]; application rate 25 g/ha): 17% | Efficacy in % (Leptosphaeria nodorum [5]; application rate 6.25 g/ha): 50% | Efficacy in % (Puccinia recondita [7]): 33% | Efficacy in % ([4]; application rate 12.5 g/ha): 0% | pest or weed control at 6.25 g/ha (Leptosphaeria nodorum [2]): 25% | pest or weed control at 6.25 g/ha (Puccinia recondita [3]): 13%

CO/N=C(\C(=O)OC)c1ccccc1COc1ccccc1C [(T), kresoxim-methyl]
Emax at 1 g/ha (Phytophthora infestans; [8]): 14% | Efficacy in % ([1]; application rate 12.5 g/ha): 67% | Efficacy in % ([6]; application rate 6.25 g/ha): 0% | Efficacy in % (Leptosphaeria nodorum [5]; application rate 12.5 g/ha): 50% | Efficacy in % ([4]; application rate 25 g/ha): 86% | pest or weed control at 6.25 g/ha (Leptosphaeria nodorum [2]): 0% | pest or weed control at 6.25 g/ha (Puccinia recondita [3]): 25%

CO/C=C(/C(=O)OC)c1ccccc1Oc1cc(Oc2ccccc2C#N)ncn1 [(U), azoxystrobin]
Emax at 2.5 g/ha (Sphaerotheca fuliginea; application rate 2.5 g/ha): 57%

CC1(C)CCC(Cc2ccc(Cl)cc2)C1(O)Cn1cncn1 (centres unmarked) [(W), metconazole]
Efficacy in % ([1]; application rate 6.25 g/ha): 33% | Efficacy in % (Leptosphaeria nodorum [5]; application rate 12.5 g/ha): 25% | Efficacy in % (Puccinia recondita [7]): 50% | Efficacy in % ([4]; application rate 6.25 g/ha): 43% | pest or weed control at 6.25 g/ha (Leptosphaeria nodorum [2]): 50% | pest or weed control at 6.25 g/ha (Puccinia recondita [3]): 75%

N#Cc1c[nH]cc1-c1cccc2c1OC(F)(F)O2 [(Y), fludioxonil]
Efficacy in % (Fusarium nivale; [10]): 92% | Efficacy in % ([6]; application rate 25 g/ha): 0% | pest or weed control at 6.25 g/ha (Leptosphaeria nodorum [2]): 25% | pest or weed control at 6.25 g/ha (Puccinia recondita [3]): 13%

CSC(=O)c1cccc2nnsc12 [(β)]
% efficacy (Phytophthora infestans; [11]): 0%

CCCN(CC)CC1COC2(CCC(C(C)(C)C)CC2)O1 (centres unmarked) [(δ), 8-t-butyl-2-(N-ethyl-N-n-propyl-amino)-methyl-1,4-dioxaspiro[5.4]-decane]
% efficacy (Sphaerotheca fuliginea; application rate 2.5 g/ha): 10% | Efficacy in % ([1]; application rate 6.25 g/ha): 0% | Efficacy in % (Leptosphaeria nodorum [5]; application rate 12.5 g/ha): 25% | Efficacy in % ([4]; application rate 6.25 g/ha): 14% | Efficacy in % (Leptosphaeria nodorum [2]): 25% | Efficacy in % (Puccinia recondita [3]): 13%

CC1(C(=O)Nc2ccc(O)c(Cl)c2Cl)CCCCC1 [(ε), 2,3-dichloro-4-(1-methylcyclohexylcarbonylamino)-phenol]
Emax at 5 g/ha (Phytophthora infestans; [8]): 14%

O=C1C2CC=CCC2C(=O)N1SC(Cl)(Cl)Cl (centres unmarked) [(θ), captan]
Emax at 12.5 g/ha (Sphaerotheca fuliginea): 0%

O=[N+]([O-])c1cc(C(F)(F)F)c(Cl)c([N+](=O)[O-])c1Nc1ncc(C(F)(F)F)cc1Cl [(π), fluazinam]
Emax at 5 g/ha (Phytophthora infestans; [8]): 11%

O=C(Nc1ccccc1)N(Cc1ccc(Cl)cc1)C1CCCC1 [(ρ), pencycuron]
Efficacy in % (Fusarium nivale; [9]): 29%

CCC1(C(=O)N[C@H](C)c2ccc(Cl)cc2)C(C)C1(Cl)Cl (stereo partly drawn) [(ω), N-(R)-[1-(4-chloro-phenyl)-ethyl]-2,2-dichloro-1-ethyl-3t-methyl-1r-cyclopropane-carboxarnide]
% efficacy (Phytophthora infestans; [11]): 5%

cymoxanil [(M)]
% efficacy (Phytophthora infestans; in vivo): 12%

mancozeb [(II)]
% efficacy (Phytophthora infestans; application rate 50 g/ha, tomato, protective, 3 days after inoculation): 54%

propineb [(A)]
% efficacy (Sphaerotheca fuliginea; application rate 25 g/ha): 45%
